Like-named read-outs stand apart in the source and are kept apart here.
What was measured:
[1] = system: human three-dimensional culture epidermal model (LabCyte EPI-MODEL); assay: Production of skin irritation mediators induced by PMA in human three-dimensional epidermal culture model (Experiment 1); format: cell-based; conditions: for Effect on skin irritation mediator production by PMA (in words): summary of Table 1; for Relative Production Amount of Skin Irritation Mediator when Production Amount in PMA Only Group is Set to 100: IL-1α / Relative Production Amount of Skin Irritation Mediator when Production Amount in PMA Only Group is Set to 100: IL-6 / Relative Production Amount of Skin Irritation Mediator when Production Amount in PMA Only Group is Set to 100: IL-8 / Relative Production Amount of Skin Irritation Mediator when Production Amount in PMA Only Group is Set to 100: PGE2: test substance 0.1 mass % with PMA in olive oil; for Relative Production Amount of Skin Irritation Mediator when Production Amount in PMA Only Group is Set to 100: IL-1α / Relative Production Amount of Skin Irritation Mediator when Production Amount in PMA Only Group is Set to 100: IL-6 / Relative Production Amount of Skin Irritation Mediator when Production Amount in PMA Only Group is Set to 100: IL-8 / Relative Production Amount of Skin Irritation Mediator when Production Amount in PMA Only Group is Set to 100: PGE2 / activity at 1 %: 48 hours; for activity at 1 %: Homo sapiens, test substance 1 mass % with PMA in olive oil
Excerpt: Changes in production amounts of skin irritation mediators by test substances were examined when cutaneous irritants were caused to act on a human three-dimensional culture epidermal model.
(§1) A human three-dimensional epidermal culture model obtained by multilayer-culturing a human normal epidermal cell (LabCyte EPI-MODEL, manufactured by Japan Tissue Engineering Co., Ltd.) was used. LabCyte is a cultured skin cultured in a transwell. For the experiment, LabCyte was used with the transwell.
As test substances, there were used cholesterol (manufactured by Wako Pure Chemical Industries, Ltd.), β-sitosterol (manufactured by TAMA BIOCHEMICAL CO., LTD.), α-spinasterol (manufactured by ChromaDex, Inc.), ergosterol (manufactured by Wako Pure Chemical Industries, Ltd.), campesterol (manufactured by TAMA BIOCHEMICAL CO., LTD.), glycyrrhizin (manufactured by Wako Pure Chemical Industries, Ltd.), glycyrrhetinic acid (manufactured by Wako Pure Chemical Industries, Ltd.), ginsenoside (manufactured by Wako Pure Chemical Industries, Ltd.), squalene (manufactured by Wako Pure Chemical Industries, Ltd.), squalane (manufactured by Tokyo Chemical Industry Co., Ltd.) and lanosterol (manufactured by ChromaDex, Inc.), which are candidates of a skin irritation suppressant.
As skin irritants, Phorbol 12-Myristate 13-Acetate (PMA, manufactured by Wako Pure Chemical Industries, Ltd.) was used. In addition, as vehicle, olive oil (manufactured by Wako Pure Chemical Industries, Ltd.) was used.
Experiments were conducted by the following group composition. • PMA Only Group: A group with addition of only 0.00001 mol of PMA dispersed in a vehicle, as a test solution. • Test Substance Group: A group with addition of 0.00001 mol of PMA and the test substance which were dispersed in a vehicle, as a test solution.
(§2) The experiment was conducted as below. First, LabCyte was put into a 24-well assay plate. Then, 1 ml of assay medium (Japan Tissue Engineering Co., Ltd.) was added so that it was brought into contact with a bottom surface of the cultured skin in each well of the 24-well assay plate, and was pre-cultured in an incubator with 5% of carbon dioxide concentration at 37° C. for 1 hour.
Next, a cell survival rate was measured by the MTT method after causing the test solutions of each group to act. Specifically, 50 μL of the test solution of each group was added to the surface of the LabCyte after preculture, was cultured in the incubator with 5% of carbon dioxide concentration at 37° C. for 48 hours, then was transferred to the assay medium comprising 0.5 mg/ml of MTT reagent, and was cultured in the incubator with 5% of carbon oxide level at 37° C. for 3 hours. Then, LabCyte was immersed in 0.3 ml of an isopropanol solution, and the produced blue-purple formazan was extracted for 2 hours. After extraction, an absorbance at 570 nm was measured by a 96 microplate reader. The cell survival rate was calculated as below.
Cell survival rate (%)=(absorbance of Test Substance Group)/(absorbance of PMA Only Group)×100
Subsequently, a production amount of the skin irritation mediator at a test substance concentration with 80% or more of cell survival rate was measured. As skin irritation mediators, PGE2, IL-1α, IL-6, IL-8 were measured.
(§3) The test solutions of each group were added to the cells, the culture solutions incubated for 48 hours were collected, and a production amount of each skin irritation mediator was measured. The skin irritation mediator was measured by using a commercially available ELISA kit (manufactured by R&D Systems, Inc.). A relative production amount of the skin irritation mediator in each test substance was calculated as below, when the production amount of the skin irritation mediator in the PMA Only Group was set to 100.
Relative production amount=(production amount of the mediator in Test Substance Group)/(production amount of the mediator in PMA Only Group)×100

[2] = system: human three-dimensional culture epidermal model (LabCyte EPI-MODEL); assay: Suppression by cholesterol of skin irritation mediator production induced by drugs in a human epidermal cell (Experiment 2); format: cell-based
Experimental: as §1, §2, §3
Cholesterol was used as a test substance. The drugs shown in Table 2 were used as the cutaneous irritants.
Tests were conducted by the following group composition. • Drug Only Group: A group with addition of only the drug dispersed in a vehicle, as a test solution. Concentrations of the drugs are shown in Table 2. • Drug Plus Cholesterol Group: A group with addition of the drug and 1% by mass of cholesterol which were dispersed in a vehicle, as a test solution.
The experiment was conducted while other conditions were set in the same manner as in Experiment 1.

[3] = system: croton oil-induced mouse ear swelling; assay: Suppression of croton oil-induced mouse ear swelling reaction (Experiment 3); format: in vivo
Excerpt: <Suppression of Croton Oil-Induced Mouse Ear Swelling Reaction by the Test Substances>
Suppression of mouse ear swelling was examined through the use of croton oil (Wako Pure Chemical Industries, Ltd.) as a swelling inducer. A 7-week-old ddY female mouse (SPF) was subjected to an experiment. As test substances, cholesterol, glycyrrhizin, glycyrrhetinic acid, squalene, ergosterol, squalane and lanosterol were used. As a vehicle, acetone (Wako Pure Chemical Industries, Ltd.) was used.
Experiments were conducted by the following group composition. • Positive Control Group: A group which received only the vehicle as a primary test solution, and one hour after, received a 2% croton oil solution as a secondary test solution. • Test Substance Group: A group in which only the vehicle was administered as a primary test solution, and one hour after, a 2% croton oil solution including 1% by mass of test substance was administered as a secondary test solution.
An inhibition ratio of ear swelling was calculated as below. In this test, a […] inflammation model is used to examine immediate swelling reactions. In accordance with the group composition, 25 μL of the primary test solution was uniformly coated on back sides of both ears in an etherize mouse, and one hour after, 25 μL of the secondary test solution was uniformly coated in accordance with the group composition. Prior to coating of the secondary test solution, a thickness of auricle was measured by DIAL […] GAUGE (OZAKI MFG CO., LTD.). Furthermore, the secondary test solution was administered, and 6 hours after, the auricular thickness was measured in the same way as mentioned above, and an increased amount of the auricular thickness was set by deducting the thickness measured prior to administration of the secondary test solution. The inhibition ratio of ear swelling was calculated as below.
Inhibition ratio of ear swelling (%)=(increased amount of auricular thickness in Test Substance Group−increased amount of auricular thickness in Negative Control Group)/(increased amount of auricular thickness in Positive Control Group−increased amount of auricular thickness in Negative Control Group)×100

[4] = Drug Plus Cholesterol Group: drug 2 × 10^−3 M plus 1% by mass of cholesterol
[5] = Drug Plus Cholesterol Group: drug 1 × 10^−3 M plus 1% by mass of cholesterol

With `CC[C@H](/C=C/[C@@H](C)[C@H]1CC[C@H]2C3=CC[C@H]4C[C@@H](O)CC[C@]4(C)[C@H]3CC[C@]12C)C(C)C` [α-spinasterol] the “Effect on skin irritation mediator production by PMA (in words)” value (from here on “Effect … by PMA (in words)”) [1] was “exhibited effects of suppressing the skin irritation mediator production by PMA”, the “Relative Production Amount of Skin Irritation Mediator when Production Amount in PMA Only Group is Set to 100: IL-1α” value [1] was 38 and the “Relative Production Amount of Skin Irritation Mediator when Production Amount in PMA Only Group is Set to 100: IL-6” value [1] was 109. The “Relative Production Amount of Skin Irritation Mediator when Production Amount in PMA Only Group is Set to 100: IL-8” value [1] was 72 and the “Relative Production Amount of Skin Irritation Mediator when Production Amount in PMA Only Group is Set to 100: PGE2” value [1] was 43.
With `CN1CCCC1c1cccnc1` (stereo not shown) [Nicotine] the “Relative Production Amount of Skin Irritation Mediator when Production Amount in Drug Only Group is Set to 100: IL-1α” value [2, 4] was 29, the “Relative Production Amount of Skin Irritation Mediator when Production Amount in Drug Only Group is Set to 100: IL-6” value [2, 4] was 93 and the “Relative Production Amount of Skin Irritation Mediator when Production Amount in Drug Only Group is Set to 100: IL-8” value [2, 4] was 67. For the same compound, the “Relative Production Amount of Skin Irritation Mediator when Production Amount in Drug Only Group is Set to 100: PGE2” value [2, 4] was 58.
`CC(C)[C@@H](C)/C=C/[C@@H](C)[C@H]1CC[C@H]2C3=CC=C4C[C@@H](O)CC[C@]4(C)[C@H]3CC[C@]12C` [Ergosterol, ergosterol] showed an activity at 1 % ([1]; read-out: Relative Production Amount of Skin Irritation Mediator when Production Amount in PMA Only Group is Set to 100: IL-1α) of 71%, an activity at 1 % ([1]; read-out: Relative Production Amount of Skin Irritation Mediator when Production Amount in PMA Only Group is Set to 100: IL-6) of 81% and an activity at 1 % ([1]; read-out: Relative Production Amount of Skin Irritation Mediator when Production Amount in PMA Only Group is Set to 100: IL-8) of 111%. The activity at 1 % ([1]; read-out: Relative Production Amount of Skin Irritation Mediator when Production Amount in PMA Only Group is Set to 100: PGE2) was 20%, the “Effect … by PMA (in words)” value [1] was “exhibited effects of suppressing the skin irritation mediator production by PMA” and the “Inhibition Ratio Of Ear Swelling” value ([3]; ddY female mouse, 1% by mass of test substance in 2% croton oil solution, 25 μL on ears, auricular thickness 6 hours after) was 38.1%. The “Effect on croton oil-induced mouse ear swelling reaction (in words)” value ([3]; summary of Table 3) was “suppress croton oil-induced mouse ear swelling reaction”.
With ginsenoside the “Effect … by PMA (in words)” value [1] was “exhibited effects of suppressing the skin irritation mediator production by PMA”, the “Relative Production Amount of Skin Irritation Mediator when Production Amount in PMA Only Group is Set to 100: IL-1α” value [1] was 77 and the “Relative Production Amount of Skin Irritation Mediator when Production Amount in PMA Only Group is Set to 100: IL-6” value [1] was 70. For the same compound, the “Relative Production Amount of Skin Irritation Mediator when Production Amount in PMA Only Group is Set to 100: IL-8” value [1] was 90 and the “Relative Production Amount of Skin Irritation Mediator when Production Amount in PMA Only Group is Set to 100: PGE2” value [1] was 121.
In the case of `Cc1nc2n(c(=O)c1CCN1CCC(c3noc4cc(F)ccc34)CC1)CCCC2` [Risperidone], the “Relative Production Amount of Skin Irritation Mediator when Production Amount in Drug Only Group is Set to 100: IL-1α” value [2, 5] was 14, the “Relative Production Amount of Skin Irritation Mediator when Production Amount in Drug Only Group is Set to 100: IL-6” value [2, 5] was 77 and the “Relative Production Amount of Skin Irritation Mediator when Production Amount in Drug Only Group is Set to 100: IL-8” value [2, 5] was 38. For the same compound, the “Relative Production Amount of Skin Irritation Mediator when Production Amount in Drug Only Group is Set to 100: PGE2” value [2, 5] was 80.

Source: patent US20130053357A1, “SKIN IRRITATION SUPPRESSANT AND TRANSDERMAL PREPARATION” (HISAMITSU PHARMACEUTICAL CO., INC., priority 2010, published 2013)
